Our source for the viscosity values is patent US20130089505A1, “SINGLE VIAL FORMULATION FOR MEDICAL GRADE CYANOACRYLATE” (priority 2007, published 2013).

This series in a line: Viscosity of cyanoacrylate monomer, oligomer and formulation. Type of series: physicochemical. The note with it: monomer free of 4-methoxyphenol and SO2. The text has this: In one embodiment, an alkyl cyanoacrylate monomer can be treated to form an alkyl cyanoacrylate oligomer with viscosity greater than the alkyl cyanoacrylate monomer. For example, an n-hexyl cyanoacrylate monomer can be treated to form an n-hexyl cyanoacrylate oligomer. Preferred oligomers result from photochemical treatment of an alkyl cyanoacrylate monomer, to produce a mixture that includes partially polymerized cyanoacrylate and that has a higher viscosity than the alkyl cyanoacrylate monomer from which it is formed. For example, the viscosity of the alkyl cyanoacrylate oligomer can advantageously be from about 10 centipoise to about 1000 centipoise and the viscosity of the alkyl cyanoacrylate monomer, from which the alkyl cyanoacrylate oligomer is formed, can be from about 2 centipoise to about 5 centipoise as measured by a rheometer. Typically, the oligomer will have a viscosity of from about 10 centipoise to about 50 centipoise.
The purified n-hexyl cyanoacrylate monomer from Example 1, containing 4-methoxyphenol, was treated with Aldrich HQ & MEHQ inhibitor remover, Sigma-Aldrich, Inc., St. Louis, Mo., USA (2005-2006 Catalog #306320), to remove the p-methoxyphenol, followed by bubbling argon through the n-hexyl cyanoacrylate monomer to remove SO2. The viscosity of the purified n-hexyl cyanoacrylate, free of 4-methoxyphenol and SO2, was ˜4 centipoise. […]

In the case of n-hexyl cyanoacrylate, the viscosity is given as approximately 4 centipoise.
